The text below walks through data of patent publication US20260062443A1 (ALEXION PHARMACEUTICALS, INC., priority 2022, published 2026).

This assay addresses T1, Human complement C1s enzyme (Homo sapiens, UniProt P09871).
T1 sequence (P09871 438-688 limits assumed): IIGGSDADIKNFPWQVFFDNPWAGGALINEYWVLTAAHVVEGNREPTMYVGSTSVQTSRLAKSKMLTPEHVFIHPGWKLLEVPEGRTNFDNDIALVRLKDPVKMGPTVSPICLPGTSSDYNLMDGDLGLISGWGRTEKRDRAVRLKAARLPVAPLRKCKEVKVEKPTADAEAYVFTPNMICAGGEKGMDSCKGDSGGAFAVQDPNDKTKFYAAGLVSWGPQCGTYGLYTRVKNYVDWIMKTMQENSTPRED
T1 sequence (P09871 16-437 partner limits assumed): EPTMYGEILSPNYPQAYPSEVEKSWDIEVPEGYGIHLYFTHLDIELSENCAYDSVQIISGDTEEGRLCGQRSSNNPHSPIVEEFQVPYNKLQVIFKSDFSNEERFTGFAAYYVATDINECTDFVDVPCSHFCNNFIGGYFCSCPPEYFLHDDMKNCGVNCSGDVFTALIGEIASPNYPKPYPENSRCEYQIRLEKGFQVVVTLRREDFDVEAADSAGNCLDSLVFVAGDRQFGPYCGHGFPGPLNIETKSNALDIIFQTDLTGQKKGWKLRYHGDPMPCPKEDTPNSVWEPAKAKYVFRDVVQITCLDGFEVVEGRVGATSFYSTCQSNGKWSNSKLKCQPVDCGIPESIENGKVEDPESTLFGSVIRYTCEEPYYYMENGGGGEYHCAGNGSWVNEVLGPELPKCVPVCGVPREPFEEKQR
Briefly: Human C1s enzyme assay. It is filed as biochemical. Particulars: human complement C1s enzyme 1.16 nM, substrate Z-L-Lys-SBzl 100 μM, 5 min preincubation; read-out: IC50 (Stars), C1s Inhibiting Activity. The gist of the method: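 Serum-purified human C1s (1.16 nM final) preincubated 5 min at room temperature with compound in 50 mM Tris, 1 M NaCl, pH 7.5. Z-L-Lys-SBzl and DTNB added at 100 μM each; A405 followed every 30 s for 30 min, and IC50 obtained by nonlinear regression of reaction rates.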

As a reminder, the IC50 is the concentration at which inhibition is half-maximal. For the compound `O=C(NCC(=O)N1C[C@H](OC(F)F)C[C@H]1C(=O)NCc1ccc2c(n1)CCN2)c1ccc2c(c1)Oc1ccccc1S2` [Compound 264, (2S,4R)-4-(difluoromethoxy)-N-((2,3-dihydro-1H-pyrrolo[3,2-b]pyridin-5-yl)methyl)-1-((phenoxathiine-3-carbonyl)glycyl)pyrrolidine-2-carboxamide], the IC50 is more than 1000 nM.
As for `O=C(NCC(=O)N1C[C@H](OC(F)F)C[C@H]1C(=O)NCc1ccc2c(n1)NCC2)c1ccc2c(c1)Oc1ccccc1S2` [Compound 265, (2S,4R)-4-(difluoromethoxy)-N-((2,3-dihydro-1H-pyrrolo[2,3-b]pyridin-6-yl)methyl)-1-((phenoxathiine-3-carbonyl)glycyl)pyrrolidine-2-carboxamide], the IC50 is more than 1000 nM.
In the case of `O=C(NCC(=O)N1C[C@H](OC(F)F)C[C@H]1C(=O)NCc1cc2cnccn2c1)c1ccc2c(c1)Oc1ccccc1S2` [Compound 266, (2S,4R)-4-(difluoromethoxy)-1-((phenoxathiine-3-carbonyl)glycyl)-N-(pyrrolo[1,2-a]pyrazin-7-ylmethyl)pyrrolidine-2-carboxamide], the IC50 is less than 100 nM.
For `Cc1nccc2[nH]c(CNC(=O)[C@@H]3C[C@]4(C)C[C@@H]4N3C(=O)CNC(=O)c3ccc4c(c3)Oc3ccccc3S4)cc12` [Compound 267, (1S,3S,5S)-5-methyl-N-((4-methyl-1H-pyrrolo[3,2-c]pyridin-2-yl)methyl)-2-((phenoxathiine-3-carbonyl)glycyl)-2-azabicyclo[3.1.0]hexane-3-carboxamide] the value was more than 1000 nM.
To `Cc1cc2[nH]c(CNC(=O)[C@@H]3C[C@]4(C)C[C@@H]4N3C(=O)CNC(=O)c3ccc4c(c3)Oc3ccccc3S4)cc2cn1` [Compound 268, (1S,3S,5S)-5-methyl-N-((6-methyl-1H-pyrrolo[3,2-c]pyridin-2-yl)methyl)-2-((phenoxathiine-3-carbonyl)glycyl)-2-azabicyclo[3.1.0]hexane-3-carboxamide] belongs more than 1000 nM; to `C[C@@]12C[C@@H]1N(C(=O)CNC(=O)c1cccc(Oc3ccc(F)cc3)c1)[C@H](C(=O)NCc1cc3cnccn3c1)C2` [Compound 269, (1S,3S,5S)-2-((3-(4-fluorophenoxy)benzoyl)glycyl)-5-methyl-N-(pyrrolo[1,2-a]pyrazin-7-ylmethyl)-2-azabicyclo[3.1.0]hexane-3-carboxamide], less than 100 nM.
For the compound `O=C(NCC(=O)N1C[C@H](OC(F)F)C[C@H]1C(=O)NCc1cc2cnccn2c1)c1cccc(Oc2ccccc2)c1` [Compound 270, (2S,4R)-4-(difluoromethoxy)-1-((3-phenoxybenzoyl)glycyl)-N-(pyrrolo[1,2-a]pyrazin-7-ylmethyl)pyrrolidine-2-carboxamide], the IC50 is less than 100 nM.
To `C[C@@]12C[C@@H]1N(C(=O)CNC(=O)c1ccc3c(c1)Oc1ccccc1S3)[C@H](C(=O)NCc1cc3cnccn3c1)C2` [Compound 271, (1S,3S,5S)-5-methyl-2-((phenoxathiine-3-carbonyl)glycyl)-N-(pyrrolo[1,2-a]pyrazin-7-ylmethyl)-2-azabicyclo[3.1.0]hexane-3-carboxamide] belongs less than 100 nM; to `Cc1ccc(Oc2cccc(C(=O)NCC(=O)N3C[C@H](OC(F)F)C[C@H]3C(=O)NCc3cc4cnccc4[nH]3)c2)cc1` [Compound 272], less than 100 nM; to `CC(C)(C)c1ccc(Oc2cccc(C(=O)NCC(=O)N3C[C@H](OC(F)F)C[C@H]3C(=O)NCc3cc4cnccc4[nH]3)c2)cc1` [Compound 273, (2S,4R)-N-((1H-pyrrolo[3,2-c]pyridin-2-yl)methyl)-1-((3-(4-(tert-butyl)phenoxy)benzoyl)glycyl)-4-(difluoromethoxy)pyrrolidine-4-carboxamide], less than 100 nM.
To `Cc1cc(F)ccc1Oc1cccc(C(=O)NCC(=O)N2C[C@H](OC(F)F)C[C@H]2C(=O)NCc2cc3cnccc3[nH]2)c1` [Compound 274, (2S,4R)-N-((1H-pyrrolo[3,2-c]pyridin-2-yl)methyl)-4-(difluoromethoxy)-1-((3-(4-fluoro-2-methylphenoxy)benzoyl)glycyl) pyrrolidine-2-carboxamide] belongs less than 100 nM; to `O=C(NCC(=O)N1C[C@H](OC(F)F)C[C@H]1C(=O)NCc1cc2cnccc2[nH]1)c1cccc(Oc2cccs2)c1` [Compound 275, (2S,4R)-N-((1II-pyrrolo[3,2-c]pyridin-2-yl)methyl)-4-(difluoromethoxy)-1-((3-(thiophen-2-yloxy)benzoyl)glycyl)pyrrolidine-2-carboxamide], less than 100 nM; to `O=C(NCC(=O)N1CC2(C[C@H]1C(=O)NCc1cc3ccncn3c1)OCCO2)c1ccc2c(c1)Oc1ccccc1S2` [Compound 276, (S)-7-((phenoxathiine-3-carbonyl)glycyl)-N-(pyrrolo[1,2-c]pyrimidin-6-ylmethyl)-1,4-dioxa-7-azaspiro[4.4]nonane-8-carboxamide], more than 1000 nM.
In the case of `C[C@@]12C[C@@H]1N(C(=O)CNC(=O)c1cccc(Oc3ccccc3)c1)[C@H](C(=O)NCc1cc3cnccn3c1)C2` [Compound 277, (1S,3S,5S)-5-methyl-2-((3-phenoxybenzoyl)glycyl)-N-(pyrrolo[1,2-a]pyrazin-7-ylmethyl)-2-azabicyclo[3.1.0]hexane-3-carboxamide], the IC50 was less than 100 nM.
As for `O=C(NCC(=O)N1C[C@H](OC(F)F)C[C@H]1C(=O)NCc1cc2cnccn2c1)c1cccc(Oc2ccc(F)cc2)c1` [Compound 278, (2S,4R)-4-(difluoromethoxy)-1-((3-(4-fluorophenoxy)benzoyl)glycyl)-N-(pyrrolo[1,2-a]pyrazin-7-ylmethyl)pyrrolidine-2-carboxamide], the IC50 is less than 100 nM.
For `C[C@@]12C[C@@H]1N(C(=O)CNC(=O)c1ccc3c(c1)Oc1ccccc1S3)[C@H](C(=O)NCc1ccc3c(c1)COB3O)C2` [Compound 279, (1S,3S,5S)-N-((1-hydroxy-1,3-dihydrobenzo[c][1,2]oxaborol-5-yl)methyl)-5-methyl-2-((phenoxathiine-3-carbonyl)glycyl)-2-azabicyclo[3.1.0]hexane-3-carboxamide] the value was more than 1000 nM.
To `O=C(Cc1ccc(Cl)c(Cl)c1)NCC(=O)N1CC2(C[C@H]1C(=O)NCc1cc3cnccc3[nH]1)OCCO2` [Compound 280, (S)-N-((1H-pyrrolo[3,2-c]pyridin-2-yl)methyl)-7-((2-(3,4-dichlorophenyl)acetyl)glycyl)-1,4-dioxa-7-azaspiro[4.4]nonane-8-carboxamide] belongs 100 to 1000 nM; to `Cc1ccc2cc(C(=O)NCC(=O)N3CC4(C[C@H]3C(=O)NCc3cc5cnccc5[nH]3)OCCO4)sc2c1` [Compound 281, (S)-N-((1H-pyrrolo[3,2-c]pyridin-2-yl)methyl)-7-((6-methylbenzo[b]thiophene-2-carbonyl)glycyl)-1,4-dioxa-7-azaspiro[4.4]nonane-8-carboxamide], 100 to 1000 nM; to `O=C(NCC(=O)N1C[C@H](OC(F)F)C[C@H]1C(=O)NCc1ccc2ocnc2c1)c1ccc2c(c1)Oc1ccccc1S2` [Compound 282, (2S,4R)-N-(benzo[d]oxazol-5-ylmethyl)-4-(difluoromethoxy)-1-((phenoxathiine-3-carbonyl)glycyl)pyrrolidine-2-carboxamide], more than 1000 nM.
Turning to `C[C@@H](NC(=O)[C@@H]1C[C@@H](OC(F)F)CN1C(=O)CNC(=O)c1cnc2c(c1)Oc1ccccc1S2)c1cc2cnccc2[nH]1` [Compound 283, N-[2-[(2S,4R)-4-(difluoromethoxy)-2-[[(1R)-1-(1H-pyrrolo[3,2-c]pyridin-2-yl)ethyl]carbamoyl]pyrrolidin-1-yl]-2-oxo-ethyl]-[1,4]benzoxathiino[3,2-b]pyridine-3-carboxamide], the IC50 was less than 100 nM.
For `CO[C@@H]1CCN(C(=O)CNC(=O)c2ccc3c(c2)Oc2ccccc2S3)[C@@H]1C(=O)NCc1cc2cnccc2[nH]1` [Compound 285] the value was more than 1000 nM.
On to `Cc1ccc2c(c1)Sc1ccc(C(=O)NCC(=O)N3C[C@H](OC(F)F)C[C@H]3C(=O)N[C@H](C)c3cc4cnccc4[nH]3)cc1O2` [Compound 286, (2S,4R)-N-((R)-1-(1H-pyrrolo[3,2-c]pyridin-2-yl)ethyl)-4-(difluoromethoxy)-1-((8-methylphenoxathiine-3-carbonyl)glycyl)pyrrolidine-2-carboxamide], for which the IC50 was less than 100 nM.
For `O=C(NCC(=O)N1CC2(C[C@H]1C(=O)NCc1cc3cnccc3[nH]1)OCCO2)c1ccc(Oc2ccc(Cl)c(Cl)c2)o1` [Compound 287, (S)-N-((1H-pyrrolo[3,2-c]pyridin-2-yl)methyl)-7-((5-(3,4-dichlorophenoxy)furan-2-carbonyl)glycyl)-1,4-dioxa-7-azaspiro[4.4]nonane-8-carboxamide], the IC50 is less than 100 nM.
With `C[C@@H](NC(=O)[C@@H]1CC(COCCCCN)CN1C(=O)CNC(=O)c1ccc2c(c1)Oc1ccccc1S2)c1cc2cnccc2[nH]1` (stereo partly drawn) [Compound 288, (2S)-N-((R)-1-(1H-pyrrolo[3,2-c]pyridin-2-yl)ethyl)-4-((4-aminobutoxy)methyl)-1-((phenoxathiine-3-carbonyl)glycyl)pyrrolidine-2-carboxamide], the IC50 was less than 100 nM.
